In US5670538A, “Use of prodelphinidins for obtaining medicaments intended for the treatment of arthrosis” (Laboratoires Dolisos, priority 1992, dated 1997):

Legend:
ferricytochrome C = assay: Control experiments: direct reduction of ferricytochrome C by the product itself; format: biochemical; settings: effect not quantifiable
Excerpt: This effect not being quantifiable, no conclusion can consequently be drawn on a possible inhibiting effect of these products on the production of the superoxide anion by the activated PMNs.

[1] = test system: human articular chondrocytes; assay: Radioimmunoassay of type II collagen (coll. II) produced in tridimensional culture of human chondrocytes; format: cell-based; settings: for activity at 1 µg/mL / activity at 10 µg/mL / activity at 100 µg/mL: Homo sapiens, Chondrocyte, 288 h, control = 100, read-out: Cumulative release of coll.II over 12 days, %; for Type II collagen in the culture media, effect in words / Collagen II in the clusters, effect in words: 10 and 100 μg/ml; for Coll. II in the clusters / Collagen II in the clusters, effect in words: experiment 397
Excerpt: The model used for testing the proanthocyanidols, namely the tridimensional culture of human chondrocytes allows chondrorepair to be quantified by the production of matrix substances: type II collagen, proteoglycans, and chondroresorption by the reduction in the levels of prostaglandin E2 and of OH° and O°2 type free radicals produced.
(§1) 1. Tridimensional culture of human chondrocytes
(§2) The technique used has been described in detail (Bassleer et al., 1986).
(§3) Briefly, human articular chondrocytes are cultivated in DMEM (Dulbecco's Modification of Eagle's Medium--ICN--Gand, Belgium) with either Ultroser G 1% (GIBCO, Gand, Belgium) or 10% of foetal calf serum (ICN--Gand--Belgium), and 50 μg of ascorbic acid/ml added to it. The cartilage originates from the apparently normal zone of heads of human femur suffering from arthrosis, immediately after an operation carried out to insert a total hip prosthesis; it can also originate from the head of a healthy femur, but which has undergone a traumatism and has had to be replaced. This cartilage is then digested by clostridial collagenase 1 mg/ml (Boehringer-Mannheim, Germany) in a buffer (NaCl 120 mM, CaCl2 1 mM, KCl 5 mM, KH2 PO4 1 mM, NaHCO3 25 mM, glucose 2 mM and Hepes 30 mM, pH 7.4) for 24 hours. After 6 successive washings and centrifugations, the chondrocytes, isolated from their matrix, are cultured in flasks (10^6 cells/2 ml of culture medium) placed on a gyrator (10 rpm). The cultures are kept at 37° C. in an atmosphere of air 95%-CO2 5% (Bassleer et al., 1986). Cultivated under these conditions, after 4 to 5 days the chondrocytes form a tridimensional cluster in each flask. These clusters, which at first have a flocculent appearance, then tend to condense during the culture. After two weeks, their diameter is, in general, from 1 to 2 mm.
(§4) The fresh weight of the clusters increases with the duration of the culture, above all during the few first days.
3. Radioimmunoassay of type II collagen (coll. II)
The method for the radioimmunoassay of coll. II has been described in detail (Henrotin et al., 1990). The coll. II is extracted from human articular cartilage according to the technique described by Herbage et al. (1977). The antiserum against coll. II was obtained from rabbits according to the technique of Vaitukaitis et al. (1971).
The assay is carried out by sequential saturation. In the first instance, the radioimmunoassay is carried out in a 0.3 ml volume consisting of 0.2 ml of incubation buffer (PBS-50 mM PO4, 300 mM NaCl, 5 g/l BSA (W/V), 6.7 mM sodium azide, pH 7.4) containing the reference coll. II (0.5 to 500 ng) or the sample to be assayed and 0.1 ml of anti-coll. II antiserum from guinea pigs diluted to 1/5000 (24 hours at 4° C.). In the second instance, 0.1 ml of ^125 I-coll. II tracer labelled according to the iodogenic technique (Salacynski et al., 1979 and diluted so as to obtain 20,000 cpm/0.1 ml) is added. After 24 hours at 4° C., the collagen-antibody complexes are separated from the free radioactive coll. II by the double antibody system (Franchimont et al. 1983). Sequential saturation gives a sensitivity of 3 ng/tube. The accuracy of the method is 10%. The coefficients of the intra- and inter assay variation are 10% and 20% respectively.
The assay is specific to human articular type II collagen.
No cross reaction is obtained with bovine collagen of type I, III or IV.
The culture media are stored at -20° C. in the presence of enzymatic inhibitors (Oegema et al., 1975). These media are assayed by the radio immunological method without any treatment beforehand. The chondrocyte clusters are washed and dissociated with ultrasonics according to the method described for the assay of the PGs. After centrifugation (1500 rpm, 10 minutes), the residue is extracted using 500 mM acetic acid under agitation for 24 hours at 4° C. The supernatant of the homogenate and the extract of the residue are mixed together and assayed after equilibration at pH 7.4 using 4M NaOH.
The recovery of coll. […]

[2] = test system: human articular chondrocytes; assay: Synthesis of DNA by incorporation of 3H-thymidine in the chondrocytes, index of cell proliferation; format: cell-based; settings: 1, 10 and 100 pg/ml (so in the source); relative to control values
Method: as §1, §2, §3, §4
5. Analysis of the synthesis of DNA by measurement of the incorporation of ^3 H-thymidine
After different culture durations, the chondrocytes are cultivated in nutritive medium with the addition of 2 uCi/ml (5 Ci/mmole) of methyl ^3 H-thymidine (^3 H-TDN) (Amersham, Brussels, Belgium) for 24 hours. […]
The radioactivity incorporated in the cluster is then measured using a beta scintillation counter.

[3] = 1% Ultroser G, culture time 0-4 days, 1 μg/ml
[4] = 1% Ultroser G, culture time 0-4 days, 10 μg/ml
[5] = 1% Ultroser G, culture time 0-4 days, 100 μg/ml
[6] = foetal calf serum, Table 18, 0-4 days, 10 μg/ml
[7] = foetal calf serum, Table 18, 0-4 days, 100 μg/ml
[8] = foetal calf serum, Table 18, 4-8 days, 10 μg/ml
[9] = foetal calf serum, Table 18, 4-8 days, 100 μg/ml
[10] = foetal calf serum, Table 19, 0-4 days, 10 μg/ml
[11] = foetal calf serum, Table 19, 0-4 days, 100 μg/ml
[12] = foetal calf serum, Table 19, 4-8 days, 10 μg/ml
[13] = foetal calf serum, Table 19, 4-8 days, 100 μg/ml
[14] = foetal calf serum, 4-8 days, 10 μg/ml
[15] = foetal calf serum, 4-8 days, 100 μg/ml

SMILES	Direct reduction of ferricytochrome C (ferricytochrome C)	Average concentrations (m ± SD) of type II collagen in the clusters of chondrocytes at the end of 12 days of culture ([1]; 1% Ultroser G, 1 μg/ml)	Cumulative release of coll.II over 12 days, Abs ([1]; 1% Ultroser G, 1 μg/ml)	Average concentrations (m ± SD) of type II collagen in the clusters of chondrocytes at the end of 12 days of culture ([1]; 1% Ultroser G, 10 μg/ml)	Cumulative release of coll.II over 12 days, Abs ([1]; 1% Ultroser G, 10 μg/ml)	Average concentrations (m ± SD) of type II collagen in the clusters of chondrocytes at the end of 12 days of culture ([1]; 1% Ultroser G, 100 μg/ml)	Cumulative release of coll.II over 12 days, Abs ([1]; 1% Ultroser G, 100 μg/ml)	Coll. II released in the culture medium [1, 3]	Coll. II released in the culture medium [1, 4]	Coll. II released in the culture medium [1, 5]	activity at 1 µg/mL ([1]; 1% Ultroser G, 1 μg/ml)	activity at 10 µg/mL ([1]; 1% Ultroser G, 10 μg/ml)	activity at 100 µg/mL ([1]; 1% Ultroser G, 100 μg/ml)	Type II collagen in the culture media, effect in words ([1]; foetal calf serum)	Coll. II released in the culture medium [1, 6]	Coll. II released in the culture medium [1, 7]	Coll. II released in the culture medium [1, 8]	Coll. II released in the culture medium [1, 9]	Coll. II released in the culture medium [1, 10]	Coll. II released in the culture medium [1, 11]	other results
Oc1cc(O)c2c(c1)O[C@H](c1cc(O)c(O)c(O)c1)[C@@H](O)[C@@H]2c1c(O)cc(O)c2c1O[C@H](c1cc(O)c(O)c(O)c1)[C@@H](O)[C@@H]2c1c(O)cc(O)c2c1O[C@H](c1cc(O)c(O)c(O)c1)[C@@H](O)C2 [Substance Ic, GC-(4 alpha→8) GC-(4 a→8)-GC]	powerful reducers of ferricytochrome C	81 ± 6 ng per μg of DNA	256 ng/μg DNA/12 days	94 ± 7 ng per μg of DNA	292 ng/μg DNA/12 days	121 ± 13 ng per μg of DNA	337 ng/μg DNA/12 days	149.4 ± 8.7 ng/μg DNA/96 h	162 ± 11 ng/μg DNA/96 h	182 ± 5.6 ng/μg DNA/96 h	134%	153%	176%	increases	44.1 ± 6.98 ng/μg DNA/96 H	70.7 ± 10.3 ng/μg DNA/96 H	33.5 ± 3.71 ng/μg DNA/96 H	41.7 ng/μg DNA/96 H	37.9 ± 5.47 ng/μg DNA/96 H	53.2 ± 4.21 ng/μg DNA/96 H	Collagen II in the clusters over 12 days, effect in words ([1]; 1% Ultroser G, 1 μg/ml): stimulant; Type II collagen released in the culture medium, effect in words ([1]; 1% Ultroser G, 1 μg/ml): significant effect; Coll. II released in the culture medium ([1]; 1% Ultroser G, culture time 0-8 days (so in the source), 1 μg/ml): 65.8 ± 7.4 ng/μg DNA/96 h; Coll. II released in the culture medium ([1]; 1% Ultroser G, culture time 0-8 days (so in the source), 10 μg/ml): 70.5 ± 7.1 ng/μg DNA/96 h; Coll. II released in the culture medium ([1]; 1% Ultroser G, culture time 0-8 days (so in the source), 100 μg/ml): 93.8 ± 10.5 ng/μg DNA/96 h; Coll. II released in the culture medium ([1]; 1% Ultroser G, culture time 0-12 days (so in the source), 1 μg/ml): 41.2 ± 4.6 ng/μg DNA/96 h; Coll. II released in the culture medium ([1]; 1% Ultroser G, culture time 0-12 days (so in the source), 10 μg/ml): 50.6 ± 4.2 ng/μg DNA/96 h; Coll. II released in the culture medium ([1]; 1% Ultroser G, culture time 0-12 days (so in the source), 100 μg/ml): 61.1 ± 5.2 ng/μg DNA/96 h; Coll. II released in the culture medium [1, 12]: 23.3 ± 2.11 ng/μg DNA/96 H; Coll. II released in the culture medium [1, 13]: 33.5 ng/μg DNA/96 H; Coll. II in the clusters [1, 14]: 85.9 ± 14.45 ng/μg DNA; Coll. II in the clusters [1, 15]: 109.8 ng/μg DNA; Collagen II in the clusters, effect in words ([1]; foetal calf serum): An increase in collagen II is observed; Incorporation of 3H thymidine in the chondrocytes [2]: None of the substances Ia, lb and Ic modifies the incorporation
Oc1cc(O)c2c(c1)O[C@H](c1cc(O)c(O)c(O)c1)[C@@H](O)[C@@H]2c1c(O)cc(O)c2c1O[C@H](c1cc(O)c(O)c(O)c1)[C@@H](O)C2 [Substance Ib, GC-(4 alpha→8) GC]	powerful reducers of ferricytochrome C	98 ± 9 ng per μg of DNA	394 ng/μg DNA/12 days	121 ± 10 ng per μg of DNA	572 ng/μg DNA/12 days	158 ± 16 ng per μg of DNA	728 ng/μg DNA/12 days	222 ± 26 ng/μg DNA/96 h	322 ± 33 ng/μg DNA/96 h	392 ± 46 ng/μg DNA/96 h	107%	155%	197%	increases	41.4 ± 0.51 ng/μg DNA/96 H	81.1 ± 20.2 ng/μg DNA/96 H	33.3 ± 4.61 ng/μg DNA/96 H	55.0 ± 17.21 ng/μg DNA/96 H	38.2 ± 2.60 ng/μg DNA/96 H	56.3 ± 12.41 ng/μg DNA/96 H	Coll. II released in the culture medium ([1]; 1% Ultroser G, culture time 4-8 days, 1 μg/ml): 112 ± 19 ng/μg DNA/96 h; Coll. II released in the culture medium ([1]; 1% Ultroser G, culture time 4-8 days, 10 μg/ml): 158 ± 14 ng/μg DNA/96 h; Coll. II released in the culture medium ([1]; 1% Ultroser G, culture time 4-8 days, 100 μg/ml): 190 ± 22 ng/μg DNA/96 h; Coll. II released in the culture medium ([1]; 1% Ultroser G, culture time 8-12 days, 1 μg/ml): 59.9 ± 0.6 ng/μg DNA/96 h; Coll. II released in the culture medium ([1]; 1% Ultroser G, culture time 8-12 days, 10 μg/ml): 91.7 ± 6.1 ng/μg DNA/96 h; Coll. II released in the culture medium ([1]; 1% Ultroser G, culture time 8-12 days, 100 μg/ml): 137.7 ± 13.4 ng/μg DNA/96 h; Coll. II released in the culture medium [1, 12]: 29.6 ± 3.44 ng/μg DNA/96 H; Coll. II released in the culture medium [1, 13]: 46.3 ± 2.61 ng/μg DNA/96 H; Coll. II in the clusters [1, 14]: 81.6 ± 16.00 ng/μg DNA; Coll. II in the clusters [1, 15]: 113.2 ± 18.25 ng/μg DNA; Collagen II in the clusters, effect in words ([1]; foetal calf serum): An increase in collagen II is observed; Incorporation of 3H thymidine in the chondrocytes [2]: None of the substances Ia, lb and Ic modifies the incorporation
